What was measured:
Test in all cases: anti-phage ELISA, relative SH3 binding activity of phage clones
Lck-SH3 = system: Lck-SH3; design: species or system menschlichen; settings: phage-displayed peptide, Fig. 2f; binding to Lck-SH3 compared with other SH3 domains
Source text: (§1) "anti-Phage-ELISA" - Bestimmung der relativen SH3-Bindungsaktivität einzelner Phagenklone
(§2) Dieser Bindungstest ist ein häufig verwendeter Test zur schnellen Bestimmung relativer Bindungsstärken selektierter Peptide, die hierbei noch physikalisch mit dem Phagen verknüpft vorliegen. Dieser Schritt dient auch zur Eliminierung von (bei dieser Methode nicht selten auftretenden) Phagenvarianten, die z. B. aufgrund ihrer Affinität zur Plastikoberfläche der verwendeten Mikrotiterplatten, angereichert werden und die somit zur Verfälschung der Ergebnisse führen können. Eine grundsätzliche Beschreibung der Methode findet sich z. B. unter Sparks et al. Methods Enzymol. 1995; 255:498-509.
(§3) GST-SH3 Protein wurde in einer Konzentration von 1-10 µg/ml in Tris-Bis über Nacht bei 4°C in Mikrotiterplatten immobilisiert. Verbleibende Bindungsstellen wurden durch 2-stündige Inkubation mit Blockierungspuffer (Bis-Tris mit 2 % Magermilchpulver) abgesättigt. In einer anderen Mikrotiterplatte wurden zuerst je 100 µl Suspension der zu testenden Phagenvariante mit 100 µl Blockierungspuffer für 20 Minuten vorinkubiert und erst dann für 1 Stunde zum immobilisierten GST-SH3 Protein gegeben. Nach einem Waschschritt mit Bis-Tris wurde ein Meerrettich-Peroxidase-konjugierter Antikörper zugegeben und die Platten für eine weitere Stunde inkubiert. […]

Lyn-SH3 = settings: phage-displayed peptide, Fig. 2f; binding to Lyn-SH3 compared with Lck-SH3
Source text: as §1, §2, §3

Hck-SH3 = settings: phage-displayed peptide, Fig. 2f; binding to Hck-SH3 compared with Lck-SH3
Source text: as §1, §2, §3

## HSKYPLPPLPSL [PD1, control peptide from standard selection with Lck-SH3 as bait]
Lck-SH3
  relative SH3-Bindungsaktivität: nicht die stärkste Bindung
Lyn-SH3
  relative SH3-Bindungsaktivität: ähnlich gut
Hck-SH3
  relative SH3-Bindungsaktivität: ähnlich gut

From EP2472259B1, “Specific molecules clinging to a lure” (Forschungszentrum Jülich GmbH, priority 2006, dated 2014)
